Results: ChEMBL document CHEMBL1137495, “Synthesis and TNF expression inhibitory properties of new thalidomide analogues derived via Heck cross coupling” (2007)
The source made the active and inactive calls. The rule behind the calls is not given here.

How the values were obtained:
Jurkat [1] = experiment: Inhibition of TNF gene expression in FRT Jurkat TNF reporter cells at 100 uM; assay type: functional; conditions: Homo sapiens
Jurkat [2] = experiment: Viability of the FRT Jurkat TNF reporter cells at 1 uM; assay type: functional, Homo sapiens
Jurkat [3] = experiment: Increase in inhibition of TNF gene expression in FRT Jurkat TNF reporter cells after 30 hrs; assay type: functional, cell-based; conditions: Homo sapiens
Jurkat [4] = experiment: Inhibition of TNF gene expression in FRT Jurkat TNF reporter cells at 10 uM; assay type: functional; conditions: Homo sapiens
Jurkat [5] = experiment: Inhibition of TNF gene expression in FRT-Jurkat TNF reporter cells at 1 uM; assay type: functional; conditions: Homo sapiens
Jurkat [6] = experiment: Increase in cell death in human FRT Jurkat TNF reporter cell; assay type: functional, cell-based
Jurkat [7] = experiment: Increase in Cytotoxicity in human FRT Jurkat TNF reporter cell at 100 uM; assay type: functional, cell-based

| Compound | inhibition at 100 µM (Jurkat [1]) | further results |
| --- | --- | --- |
| CCCCO/C=C/c1ccc(N2C(=O)c3ccccc3C2=O)cc1 | 48% | – |
| O=C1C=C(c2ccc3c(c2)C(=O)N(C2CCC(=O)NC2=O)C3=O)CCC1 (centres undefined) | 35% | – |
| COC(=O)/C=C/c1cccc2c1C(=O)N(C1CCC(=O)NC1=O)C2=O (centres undefined) | 40% | – |
| O=C1c2ccccc2C(=O)N1c1cccc(I)c1 | 37% | – |
| O=C1CCC(N2C(=O)c3ccc(/C=C/N4CCCC4=O)cc3C2=O)C(=O)N1 (centres undefined) | 36% | – |
| O=C1C=C(c2cccc3c2C(=O)N(C2CCC(=O)NC2=O)C3=O)CCC1 (centres undefined) | 38% | – |
| O=C1c2ccccc2C(=O)N1c1ccc(I)cc1 | 36% | – |
| O=C1c2ccccc2C(=O)N1c1cccc(C2CC=CO2)c1 (centres undefined) | 50% | – |
| CCCCO/C=C/c1cccc2c1C(=O)N(C1CCC(=O)NC1=O)C2=O (centres undefined) | 47% | – |
| COC(=O)/C=C/c1ccc(N2C(=O)c3ccccc3C2=O)cc1 | 41% | – |
| CCCCO/C=C/c1ccc2c(c1)C(=O)N(C1CCC(=O)NC1=O)C2=O (centres undefined) | 69% | Activity (Jurkat [2]): 100%; Activity (Jurkat [3]): Dose-dependent effect; inhibition at 10 µM (Jurkat [4]): 52%; inhibition at 1 µM (Jurkat [5]): 32%; Activity (Jurkat [6]): Active; Activity (Jurkat [7]): Active |
| CCCCOC(=O)/C=C/c1cccc2c1C(=O)N(C1CCC(=O)NC1=O)C2=O (centres undefined) | 44% | – |
| CCCCOC(=O)/C=C/c1ccc2c(c1)C(=O)N(C1CCC(=O)NC1=O)C2=O (centres undefined) | 42% | – |
| O=C1CCCN1/C=C/c1cccc(N2C(=O)c3ccccc3C2=O)c1 | 36% | – |
| O=C1CCC(N2C(=O)c3cccc(/C=C/N4CCCC4=O)c3C2=O)C(=O)N1 (centres undefined) | 38% | – |
| O=C1CCC(N2C(=O)c3ccc(/C=C/C4CC=CO4)cc3C2=O)C(=O)N1 (centres undefined) | 40% | – |

| Compound | inhibition at 100 µM (Jurkat [1]) | further results |
| --- | --- | --- |
| CCCCOC(=O)/C=C/c1cccc(N2C(=O)c3ccccc3C2=O)c1 | 35% | – |
| O=C1c2ccccc2C(=O)N1c1ccc(C2CC=CO2)cc1 (centres undefined) | 38% | – |
| COC(=O)/C=C/c1ccccc1N1C(=O)c2ccccc2C1=O | 48% | – |
| O=C1C=C(c2cccc(N3C(=O)c4ccccc4C3=O)c2)CCC1 | 47% | – |
| COC(=O)/C=C/c1ccc2c(c1)C(=O)N(C1CCC(=O)NC1=O)C2=O (centres undefined) | 39% | – |
| O=C1CCC(N2C(=O)c3ccc(Br)cc3C2=O)C(=O)N1 (centres undefined) | 35% | – |
| COC(=O)/C=C/c1cccc(N2C(=O)c3ccccc3C2=O)c1 | 44% | – |
| O=C1c2ccccc2C(=O)N1c1ccccc1I | 40% | – |
| CCCCOC(=O)/C=C/c1ccccc1N1C(=O)c2ccccc2C1=O | 52% | – |
| CCCCO/C=C/c1ccccc1N1C(=O)c2ccccc2C1=O | 47% | – |
| O=C1CCC(N2C(=O)c3ccccc3C2=O)C(=O)N1 (centres undefined) [THALIDOMIDE] | 38% | inhibition at 10 µM (Jurkat [4]): 35%; inhibition at 1 µM (Jurkat [5]): 31% |
| CCCCOC(=O)/C=C/c1ccc(N2C(=O)c3ccccc3C2=O)cc1 | 35% | – |
| O=C1CCC(N2C(=O)c3cccc(C4CC=CO4)c3C2=O)C(=O)N1 (centres undefined) | 50% | – |
| O=C1CCC(N2C(=O)c3cccc(I)c3C2=O)C(=O)N1 (centres undefined) | 37% | – |
| CCCCO/C=C/c1cccc(N2C(=O)c3ccccc3C2=O)c1 | 49% | – |
